Where two headings read alike, the source gives them in different places.
Key:
mtOXPHOS transcripts = format: cell-based, mouse
[1] = test system: cellular dehydrogenase activity
[2] = test system: mitochondrial membrane potential; format: cell-based, mouse
OXPHOS gene expression = format: cell-based, mouse
nuOXPHOS transcripts = format: cell-based, mouse
cytochrome c = format: cell-based, mouse
reactive oxygen species = format: cell-based, mouse
[3] = composite Z-score vs mock-treated (DMSO) wells, Conc 20 μM
[4] = normalized composite Z-score vs mock-treated (DMSO) wells, Conc 20 μM
[5] = Conc 27.36 μM, normalized score vs mock-treated (DMSO) wells
[6] = composite Z-score vs DMSO, Conc 20 μM
[7] = 20 μM, composite Z-score vs DMSO
[8] = composite Z-score vs mock-treated (DMSO) wells, concentration of each compound in μM
[9] = composite Z-score vs DMSO, Conc 20.18 μM

COc1ccc2c(c1)O[C@@H]1COc3cc(OC)c(OC)cc3[C@@H]1C2=O [mundoserone, reference compound]
mitoOX (mtOXPHOS transcripts; [3]): −0.452
MTT [1, 3]: −1.681
ΔΨm [2, 3]: 0.837
Viability (C2C12 myotubes; [3]): −0.425
GE-HTS (OXPHOS gene expression; [3]): −0.606
nucOX (nuOXPHOS transcripts; [3]): −0.643
cyt c (cytochrome c; [3]): 0.418
ROS (reactive oxygen species; [3]): −0.608

COc1c(-c2coc3cc4c(cc3c2=O)CC(O)C(C)(C)O4)ccc2c1C=CC(C)(C)O2 (stereo not drawn) [mundulone, reference compound]
mitoOX (mtOXPHOS transcripts; [4]): −1.091
MTT [1, 4]: −2.487
ΔΨm [2, 4]: 3.037
Viability (C2C12 myotubes; [4]): −1.113
GE-HTS (OXPHOS gene expression; [4]): −1.719
nucOX (nuOXPHOS transcripts; [4]): −1.888
cyt c (cytochrome c; [4]): −0.843
ROS (reactive oxygen species; [4]): −0.141

c1cncc(C2=NCCC2)c1 [myosmine]
mitoOX (composite Z-score) (mtOXPHOS transcripts; [5]): −0.195
MTT (composite Z-score) [1, 5]: −1.423
ΔΨm (composite Z-score) [2, 5]: 0.326
Viability (composite Z-score) (C2C12 myotubes; [5]): −0.497
GE-HTS (composite Z-score) (OXPHOS gene expression; [5]): 0.445
nucOX (composite Z-score) (nuOXPHOS transcripts; [5]): 0.712
cyt c (composite Z-score) (cytochrome c; [5]): 1.184
ROS (composite Z-score) (reactive oxygen species; [5]): 1.543

COc1ccc2cc([C@H](C)CO)ccc2c1 [naproxol]
mitoOX (mtOXPHOS transcripts; [6]): −0.018
MTT [1, 6]: −1.522
ΔΨm [2, 6]: −0.500
Viability (C2C12 myotubes; [6]): 0.249
GE-HTS (OXPHOS gene expression; [6]): −0.895
nucOX (nuOXPHOS transcripts; [6]): −1.214
cyt c (cytochrome c; [6]): 0.993
ROS (reactive oxygen species; [6]): −0.319

NC[C@@H]1O[C@H](O[C@H]2[C@@H](O)[C@H](O[C@@H]3[C@@H](O)[C@H](N)C[C@H](N)[C@H]3O[C@H]3O[C@H](CN)[C@@H](O)[C@H](O)[C@H]3N)O[C@@H]2CO)[C@H](N)[C@@H](O)[C@@H]1O [neomycin]
mitoOX (mtOXPHOS transcripts; [6]): 1.160
MTT [1, 6]: −1.478
ΔΨm [2, 6]: −0.599
Viability (C2C12 myotubes; [6]): −1.255
GE-HTS (OXPHOS gene expression; [6]): 0.817
nucOX (nuOXPHOS transcripts; [6]): 0.598
cyt c (cytochrome c; [6]): 0.734
ROS (reactive oxygen species; [6]): 1.203

CC(=O)OC1CCC2(C)C(CCC3C2CCC2(C)C3CC3OC4(CCC(C)CO4)C(C)C32)C1 (stereo not drawn) [neotigogenin acetate]
mitoOX (mtOXPHOS transcripts; [4]): −0.693
MTT [1, 4]: −1.611
ΔΨm [2, 4]: −0.822
Viability (C2C12 myotubes; [4]): −0.705
GE-HTS (OXPHOS gene expression; [4]): −0.890
nucOX (nuOXPHOS transcripts; [4]): −0.925
cyt c (cytochrome c; [4]): −0.049
ROS (reactive oxygen species; [4]): −0.437

O=C(Nc1ccc([N+](=O)[O-])cc1Cl)c1cc(Cl)ccc1O [niclosamide]
mitoOX (mtOXPHOS transcripts): −0.755
mitoOX (mtOXPHOS transcripts; [7]): −2.299
MTT [1]: −3.816
MTT [1, 7]: −0.296
ΔΨm [2]: −3.700
ΔΨm [2, 7]: −4.256
Viability (C2C12 myotubes): −1.410
Viability (C2C12 myotubes; [7]): −0.944
GE-HTS (OXPHOS gene expression): −0.976
GE-HTS (OXPHOS gene expression; [7]): −1.042
nucOX (nuOXPHOS transcripts): −1.007
nucOX (nuOXPHOS transcripts; [7]): −0.288
cyt c (cytochrome c): −3.177
cyt c (cytochrome c; [7]): −2.947
ROS (reactive oxygen species): −3.069
ROS (reactive oxygen species; [7]): −3.862

CN1CCC[C@H]1c1cccnc1 [nicotine]
mitoOX (mtOXPHOS transcripts): −1.705
MTT [1]: −1.228
ΔΨm [2]: −0.423
Viability (C2C12 myotubes): −0.093
GE-HTS (OXPHOS gene expression): −1.360
nucOX (nuOXPHOS transcripts): −1.032
cyt c (cytochrome c): 0.348
ROS (reactive oxygen species): 0.503

c1ccc2c3c([nH]c2c1)[C@H]1[C@H]2CC[C@H]([C@@H]4CCCN[C@@H]42)N1CC3 [nitrarine]
mitoOX (mtOXPHOS transcripts; [8]): −0.378
MTT [1, 8]: −1.978
ΔΨm [2, 8]: −0.986
Viability (C2C12 myotubes; [8]): −0.068
GE-HTS (OXPHOS gene expression; [8]): −0.352
nucOX (nuOXPHOS transcripts; [8]): −0.303
cyt c (cytochrome c; [8]): 0.040
ROS (reactive oxygen species; [8]): 0.458

NC(=O)N/N=C/c1ccc([N+](=O)[O-])o1 [nitrofural]
mitoOX (mtOXPHOS transcripts; [9]): −0.750
MTT [1, 9]: −0.852
ΔΨm [2, 9]: −0.518
Viability (C2C12 myotubes; [9]): 0.584
GE-HTS (OXPHOS gene expression; [9]): −0.260
nucOX (nuOXPHOS transcripts; [9]): −0.010
cyt c (cytochrome c; [9]): 0.342
ROS (reactive oxygen species; [9]): 0.446

NC(=O)N/N=C/c1ccc([N+](=O)[O-])o1 [nitrofurazone]
mitoOX (mtOXPHOS transcripts; [6]): −0.643
MTT [1, 6]: −0.617
ΔΨm [2, 6]: −0.185
Viability (C2C12 myotubes; [6]): 0.544
GE-HTS (OXPHOS gene expression; [6]): −0.199
nucOX (nuOXPHOS transcripts; [6]): 0.038
cyt c (cytochrome c; [6]): 0.785
ROS (reactive oxygen species; [6]): 2.173

Source: US20090143279A1 (priority 2007, published 2009)
